The values below come from ChEMBL document CHEMBL4184188, “Characterization of tyrosinase inhibitory constituents from the aerial parts of Humulus japonicus using LC-MS/MS coupled online assay” (Bioorg Med Chem, 2018).

Broadly, the inhibition is the drop in the measured response relative to a control, in per cent.

The source made the active and inactive calls. The calls are words filed in the database; no cut-off is given here.

The target in the first assay is T1, Tyrosinase (Agaricus bisporus) (UniProt O42713).
T1 sequence (whole entry): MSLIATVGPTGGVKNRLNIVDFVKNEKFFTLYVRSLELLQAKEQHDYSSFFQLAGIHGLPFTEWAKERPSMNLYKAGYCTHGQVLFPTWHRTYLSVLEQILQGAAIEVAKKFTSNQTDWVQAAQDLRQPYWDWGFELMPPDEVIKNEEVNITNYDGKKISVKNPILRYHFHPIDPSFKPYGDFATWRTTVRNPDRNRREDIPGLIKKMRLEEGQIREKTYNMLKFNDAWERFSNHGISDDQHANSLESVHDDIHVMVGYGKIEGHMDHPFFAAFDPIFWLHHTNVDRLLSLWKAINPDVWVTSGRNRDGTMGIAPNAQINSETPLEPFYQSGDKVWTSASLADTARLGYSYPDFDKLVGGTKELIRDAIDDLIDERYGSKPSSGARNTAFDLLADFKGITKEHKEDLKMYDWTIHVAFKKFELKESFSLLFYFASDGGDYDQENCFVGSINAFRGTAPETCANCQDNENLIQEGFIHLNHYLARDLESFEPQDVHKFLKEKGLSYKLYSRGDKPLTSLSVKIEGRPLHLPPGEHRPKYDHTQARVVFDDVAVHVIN
The assay is described as follows: Inhibition of mushroom tyrosinase using tyrosine as substrate pretreated for 5 mins followed by substrate addition measured after 20 mins by ELISA.
`O=c1cc(-c2ccc(O)cc2)oc2c([C@@H]3O[C@H](CO)[C@@H](O)[C@H](O)[C@H]3O)c(O)cc(O)c12`: the inhibition result is “inactive”.
The same measure, in the same setting: then `NC(=O)/C=C/c1ccc(O)cc1`, with “Active”; and `COc1cc(/C=C/C(=O)NCCc2ccc(O)cc2)ccc1O`, with “inactive”; and `COc1cc(C(C)=O)ccc1O`, with “inactive”.
As for `O=c1cc[nH]c(=O)[nH]1`, the inhibition result is “Active”.
As to `O=C(O)c1c[nH]c2ccccc12`, the inhibition entry was “Active”.
On the same count and under the same terms, in the case of `O=Cc1c[nH]c2ccccc12` it was “Active”.
Turning to `O=C(O)c1ccc(O)cc1`, the inhibition result was “Active”.
On the same count and under the same terms, in the case of `O=C(O)c1ccccc1` it was “Active”.
Turning to `COc1ccc(C(C)=O)cc1OC`, the inhibition entry is “inactive”.
On to `CC(=O)C=C=C1C(C)(C)C[C@H](O)C[C@@]1(C)O`, for which the inhibition entry is “inactive”.
On the same count and under the same terms, then `C=CCc1ccc(O[C@@H]2O[C@H](CO)[C@@H](O)[C@H](O)[C@H]2O)c(OC)c1`, with “inactive”.
The same measure, in the same setting: then `COc1cc2ccc(=O)oc2cc1O`, with “Active”; and `NC(=O)c1cccnc1`, with “Active”.
On the same count and under the same terms, then `CCOC(C)=O`, with “Active”; and `COc1cc2oc(=O)ccc2cc1O`, with “Active”; and `CC1=CC(=O)CC(C)(C)[C@@]1(O)CC[C@H](C)O`, with “inactive”.
As to `CC1(C)C[C@@H](O)C[C@]2(C)OC(=O)C=C12`, the inhibition entry was “inactive”.
The same measure, in the same setting: then `C/C(=C\COC(=O)c1ccccc1)CO[C@@H]1O[C@H](CO)[C@@H](O)[C@H](O)[C@H]1O`, with “Active”; and `O=c1cc(-c2ccc(O)c(O)c2)oc2cc(O)cc(O)c12`, with “Active”; and `O=C(/C=C/c1ccc(O)cc1)NCCc1ccc(O)cc1`, with “Active”.
Still for that read-out and setting: then `O=Cc1ccccc1`, with “Active”; and `O=C(/C=C\c1ccc(O)cc1)NCCc1ccc(O)cc1`, with “Active”; and `CC(=O)/C=C/[C@@]12O[C@]1(C)C[C@@H](O)CC2(C)C`, with “inactive”.
On the same count and under the same terms, in the case of `COC(=O)c1c[nH]c2ccccc12` it was “Active”; in that of `COc1cc(/C=C\C(=O)NCCc2ccc(O)cc2)ccc1O`, “inactive”.
For `CC1=CC(=O)CC(C)(C)/C1=C/C[C@@H](C)O`, the inhibition result was “inactive”.
The same measure, in the same setting: then `COc1cc(C(=O)O)ccc1O`, with “inactive”; and `CC1(C)C[C@@H](O)C[C@@]2(C)OC(=O)C=C12`, with “inactive”.
Same read-out and setting: in the case of `CC(=O)/C=C/[C@H]1C(C)=C[C@H](O)CC1(C)C` it was “inactive”; in that of `CC(=O)/C=C/[C@@]1(O)C(C)=CC(=O)CC1(C)C`, “inactive”; in that of `C/C(=C\COC(=O)c1ccccc1O)CO[C@@H]1O[C@H](CO)[C@@H](O)[C@H](O)[C@H]1O`, “Active”.
On to `O=c1cc(-c2ccc(O)cc2)oc2cc(O)cc(O)c12`, for which the inhibition entry was “Active”.
Take `COc1ccc(C=O)cc1O`: the inhibition result was “inactive”.

The next assay has as its target T1, Tyrosinase (Agaricus bisporus). The assay can be described thus: Inhibition of mushroom tyrosinase at 100 uM using tyrosine as substrate pretreated for 5 mins followed by substrate addition measured after 20 mins by ELISA relative to control. Background: In an ELISA, binding on a coated surface is turned into a signal by an enzyme label.
`O=Cc1c[nH]c2ccccc12`: the inhibition is greater than 30%.
Still for that read-out and setting: then `COc1cc2ccc(=O)oc2cc1O`, with greater than 30%.
With `COc1cc2oc(=O)ccc2cc1O`, the inhibition was greater than 30%.
Still for that read-out and setting: then `C/C(=C\COC(=O)c1ccccc1O)CO[C@@H]1O[C@H](CO)[C@@H](O)[C@H](O)[C@H]1O`, with greater than 30%.
